The results in this text go back to article PMC9556824, “Design, synthesis and computational study of new benzofuran hybrids as dual PI3K/VEGFR2 inhibitors targeting cancer” (Scientific Reports, 2022).

Series [1] has as its system mammary gland breast cancer (MCF-7). The series is described as follows: Antitumor screening using MTT assay. The following applies: Homo sapiens; for viability at 1.56 µM / viability at 3.125 µM / viability at 6.25 µM / viability at 12.5 µM / viability at 25 µM / viability at 50 µM / viability at 100 µM: MCF7, read-out: Average of Relative viability of cells (%); for IC50: MCF7, read-out: In-vitro cytotoxicity IC50 (µM) MCF-7.

Series [2] relates to human prostate cancer (PC3). The experiment in a line: Antitumor screening using MTT assay. The following applies: Homo sapiens; for viability at 1.56 µM / viability at 3.125 µM / viability at 6.25 µM / viability at 12.5 µM / viability at 25 µM / viability at 50 µM / viability at 100 µM: read-out: Average of Relative viability of cells (%); for IC50: read-out: In-vitro cytotoxicity IC50 (µM) PC3.
Text: (§2) Hepatocellular carcinoma (HePG2), mammary gland breast cancer (MCF-7), epithelioid carcinoma cervix cancer (Hela), and human prostate cancer were included on the panel (PC3). […] The cell lines were obtained from the American Type Culture Collection (ATCC) through VACSERA, a Cairo-based holding firm for biological goods and vaccines.
(§3) The panel consisted of hepatocellular carcinoma (HePG2), mammary gland breast cancer (MCF-7), epithelioid carcinoma cervix cancer (Hela) and human prostate cancer (PC3). Human lung fibroblast (WI38) was used to assay the cytotoxicity effect on normal cell. The cell lines were obtained from ATCC via Holding company for biological products and vaccines (VACSERA), Cairo, Egypt. The cytotoxic activity was defined as the concentration of the compound that causes 50% growth inhibition compared with the growth of untreated cells.

Series [3] concerns human lung fibroblast (WI38). The experiment in a line: In vitro cytotoxicity against human normal cell line (MTT). It counts as cell-based. The following applies: Homo sapiens, WI-38, human normal cell line WI38; mean ± SD, n = 3. The text has this: (§1) The anticancer agent's selectivity for cancer cells is a critical consideration for any researcher, as it can decrease the molecule's adverse effects on normal human cells.

Assay in series [4]: as above
It counts as cell-based. The following applies: human, WI38 human lung fibroblast cells (normal cell line), WI38, read-out: Average of Relative viability of cells (%); for viability at 1.56 µM: Conc. 1.56 µM; for viability at 3.125 µM: Conc. 3.125 µM; for viability at 6.25 µM: Conc. 6.25 µM; for viability at 12.5 µM: Conc. 12.5 µM; for viability at 25 µM: Conc. 25 µM; for viability at 50 µM: Conc. 50 µM; for viability at 100 µM: Conc. 100 µM.
Text: as §1

Series [5] has as its system epithelioid carcinoma cervix cancer (Hela). The series is described as follows: Antitumor screening using MTT assay. Particulars: Homo sapiens, HeLa; for viability at 1.56 µM / viability at 3.125 µM / viability at 6.25 µM / viability at 12.5 µM / viability at 25 µM / viability at 50 µM / viability at 100 µM: read-out: Average of Relative viability of cells (%); for IC50: read-out: In-vitro cytotoxicity IC50 (µM) Hela. For orientation: Tetrazolium dyes change colour on reduction, which living cells bring about.

For series [6], the system named is Hepatocellular carcinoma (HePG2). The series is described as follows: Antitumor screening using MTT assay. The following applies: Homo sapiens; for viability at 1.56 µM: Conc. 1.56 µM; for viability at 1.56 µM / viability at 3.125 µM / viability at 6.25 µM / viability at 12.5 µM / viability at 25 µM / viability at 50 µM / viability at 100 µM: read-out: Average of Relative viability of cells (%); for viability at 3.125 µM: Conc. 3.125 µM; for viability at 6.25 µM: Conc. 6.25 µM; for viability at 12.5 µM: Conc. 12.5 µM; for viability at 25 µM: Conc. 25 µM; for viability at 50 µM: Conc. 50 µM; for viability at 100 µM: Conc. 100 µM; for IC50: mean ± SD, n = 3, read-out: In-vitro cytotoxicity IC50 (µM) HePG2. It counts as cell-based, human.
Text: as §2, §3

The target in series [7] is human PI3Kα (Homo sapiens, UniProt P42336). The series is described as follows: Human PI3Kα enzyme inhibition assay (ELISA). For orientation: ELISA stands for enzyme-linked immunosorbent assay.
Sequence of human PI3Kα (P42336 whole entry): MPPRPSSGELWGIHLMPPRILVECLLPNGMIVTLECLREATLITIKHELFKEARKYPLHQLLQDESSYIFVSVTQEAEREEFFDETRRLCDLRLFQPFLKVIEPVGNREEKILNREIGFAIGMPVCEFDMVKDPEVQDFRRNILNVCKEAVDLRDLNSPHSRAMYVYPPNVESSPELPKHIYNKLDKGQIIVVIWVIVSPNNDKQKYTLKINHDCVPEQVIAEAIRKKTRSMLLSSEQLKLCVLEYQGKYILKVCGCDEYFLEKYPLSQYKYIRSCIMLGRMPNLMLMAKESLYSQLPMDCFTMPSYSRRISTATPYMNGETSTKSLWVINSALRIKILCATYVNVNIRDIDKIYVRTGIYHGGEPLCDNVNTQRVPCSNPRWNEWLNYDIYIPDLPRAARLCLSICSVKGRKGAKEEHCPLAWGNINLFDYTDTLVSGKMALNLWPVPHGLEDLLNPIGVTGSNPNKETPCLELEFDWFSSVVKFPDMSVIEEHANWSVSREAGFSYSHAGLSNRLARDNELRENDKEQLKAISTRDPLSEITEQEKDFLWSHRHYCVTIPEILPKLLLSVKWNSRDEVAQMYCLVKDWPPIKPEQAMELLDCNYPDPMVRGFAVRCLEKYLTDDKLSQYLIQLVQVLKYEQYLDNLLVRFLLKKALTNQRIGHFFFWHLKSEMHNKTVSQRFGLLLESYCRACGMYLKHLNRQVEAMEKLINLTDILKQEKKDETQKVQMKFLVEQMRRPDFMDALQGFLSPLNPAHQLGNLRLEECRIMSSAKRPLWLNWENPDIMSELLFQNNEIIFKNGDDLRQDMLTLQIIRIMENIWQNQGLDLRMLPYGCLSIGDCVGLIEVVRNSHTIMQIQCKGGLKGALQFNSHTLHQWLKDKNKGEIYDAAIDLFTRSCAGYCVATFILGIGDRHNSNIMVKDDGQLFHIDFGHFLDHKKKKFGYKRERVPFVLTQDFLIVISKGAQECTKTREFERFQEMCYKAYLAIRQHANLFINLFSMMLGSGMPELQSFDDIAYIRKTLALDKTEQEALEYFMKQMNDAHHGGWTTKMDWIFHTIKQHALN
Sequence of human PI3Kα (P27986 whole entry partner): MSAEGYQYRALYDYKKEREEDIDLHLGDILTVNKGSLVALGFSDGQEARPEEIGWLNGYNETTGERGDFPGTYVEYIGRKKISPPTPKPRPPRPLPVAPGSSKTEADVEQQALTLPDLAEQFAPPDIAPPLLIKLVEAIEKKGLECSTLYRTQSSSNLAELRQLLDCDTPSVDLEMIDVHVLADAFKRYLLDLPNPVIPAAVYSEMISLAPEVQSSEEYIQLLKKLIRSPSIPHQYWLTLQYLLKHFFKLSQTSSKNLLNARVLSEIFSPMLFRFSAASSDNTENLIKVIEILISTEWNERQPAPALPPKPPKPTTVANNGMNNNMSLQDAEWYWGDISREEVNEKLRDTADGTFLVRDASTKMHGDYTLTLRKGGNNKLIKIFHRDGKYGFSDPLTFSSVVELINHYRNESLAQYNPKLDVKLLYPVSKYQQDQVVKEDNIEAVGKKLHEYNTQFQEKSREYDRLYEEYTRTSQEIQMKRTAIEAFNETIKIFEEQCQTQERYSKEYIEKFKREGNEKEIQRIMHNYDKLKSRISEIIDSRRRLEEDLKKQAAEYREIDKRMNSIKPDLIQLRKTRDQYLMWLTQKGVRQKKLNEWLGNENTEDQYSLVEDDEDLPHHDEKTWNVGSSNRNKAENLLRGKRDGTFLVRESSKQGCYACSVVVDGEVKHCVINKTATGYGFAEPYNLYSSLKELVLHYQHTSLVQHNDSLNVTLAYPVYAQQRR
Procedure: PI3Kα and VEGFR-2 activity were verified by enzyme-linked immunosorbent assay (ELISA) assay technique. […] Then, the mean absorbance of each group of standard and tested compounds was determined. The standard curve was drawn on log–log paper with the absorbance on the Y-axis and the standard concentration on the X-axis.

What is called viability is a per cent measure of how many cells are alive, often set against a control. As usually defined, the IC50 is the point on the concentration scale where inhibition reaches its midpoint. As a reminder, the melting point is the temperature, or range, at which the solid turns liquid. Compound `O=C(/C=C/N1CCCCC1)c1cc2ccccc2o1` [Compound 5, (E)-1-(benzofuran-2-yl)-3-(piperidin-1-yl)prop-2-en-1-one] had a melting point of 136 to 138 °C. In addition, in series [1], the viability at 1.56 µM was 100%, the viability at 3.125 µM stood at 96.2%, the viability at 6.25 µM came out at 72.1% and the viability at 12.5 µM was 54.9%. Also, in series [1], the viability at 25 µM is 41.8%, the viability at 50 µM was found to be 32.5%, the viability at 100 µM was 20.4% and the IC50 came out at 19.9 ± 1.5 µM. In series [2], the viability at 1.56 µM was 100%, the viability at 3.125 µM amounted to 100%, the viability at 6.25 µM came to 92.7% and the viability at 12.5 µM was 67.2%. Also, in series [2], the viability at 25 µM worked out at 58.1%, the viability at 50 µM came to 47.8%, the viability at 100 µM is 32.9% and the IC50 turned out to be 41.5 ± 2.6 µM. Moreover, the IC50 in series [3] amounted to 64 ± 3.1 µM. In series [4], the viability at 1.56 µM was found to be 100%, the viability at 3.125 µM turned out to be 100%, the viability at 6.25 µM was 100% and the viability at 12.5 µM was determined as 91.8%. In series [4], the viability at 25 µM is 72.3%, the viability at 50 µM amounted to 57.1% and the viability at 100 µM stood at 38.2%. Moreover, in series [5], the viability at 1.56 µM was determined as 100%, the viability at 3.125 µM amounted to 96.6%, the viability at 6.25 µM was 79.3% and the viability at 12.5 µM is 62.9%. In series [5], the viability at 25 µM worked out at 51.4%, the viability at 50 µM worked out at 38.1%, the viability at 100 µM amounted to 26.3% and the IC50 stood at 28.3 ± 2.2 µM. Moreover, in series [6], the viability at 1.56 µM was 100%, the viability at 3.125 µM is 76.8%, the viability at 6.25 µM is 65% and the viability at 12.5 µM was 42.3%. Also, in series [6], the viability at 25 µM was 37.2%, the viability at 50 µM is 24%, the viability at 100 µM amounted to 15.3% and the IC50 came out at 12.6 ± 1 µM.
As to `C/C(=N\N=C\c1ccc(O)cc1)c1cc2ccccc2o1` [Compound 11, (E)-1-[1-(benzofuran-2-yl)ethylidene]-2-((E)-4-hydroxybenzylidene)hydrazine], the melting point lay in the range of 154 to 156 °C. In series [1], the IC50 is greater than 100 µM. Also, in series [2], the IC50 was greater than 100 µM. Besides, the IC50 in series [3] came to 43.2 ± 2.9 µM. Besides, the IC50 in series [5] was determined as 89.3 ± 3.2 µM. Also, the IC50 in series [6] worked out at 84.9 ± 3.2 µM.
Consider `C\C(=N/N=C/C=C/c1ccccc1)c1cc2ccccc2o1` [Compound 12], for which the melting point was in the range of 141 to 143 °C. Moreover, in series [1], the viability at 1.56 µM came to 100%, the viability at 3.125 µM came to 100%, the viability at 6.25 µM was determined as 94.7% and the viability at 12.5 µM amounted to 81.8%. For the same compound, in series [1], the viability at 25 µM was determined as 70.2%, the viability at 50 µM worked out at 57.1%, the viability at 100 µM stood at 43.2% and the IC50 worked out at 68.4 ± 3.6 µM. Further, in series [2], the viability at 1.56 µM turned out to be 100%, the viability at 3.125 µM turned out to be 100%, the viability at 6.25 µM amounted to 98.4% and the viability at 12.5 µM stood at 86.6%. In series [2], the viability at 25 µM is 71.7%, the viability at 50 µM amounted to 55%, the viability at 100 µM was determined as 47.3% and the IC50 was determined as 74.4 ± 3.9 µM. In series [3], this compound showed an IC50 of 56.5 ± 3.2 µM. Moreover, in series [4], the viability at 1.56 µM came to 100%, the viability at 3.125 µM worked out at 100%, the viability at 6.25 µM was found to be 91.3% and the viability at 12.5 µM turned out to be 78.1%. For the same compound, in series [4], the viability at 25 µM was determined as 61.9%, the viability at 50 µM was determined as 52.5% and the viability at 100 µM was 41%. Moreover, in series [5], the viability at 1.56 µM amounted to 100%, the viability at 3.125 µM was 100%, the viability at 6.25 µM was found to be 86.6% and the viability at 12.5 µM is 72.3%. For the same compound, in series [5], the viability at 25 µM turned out to be 59.2%, the viability at 50 µM is 41.8%, the viability at 100 µM is 34.1% and the IC50 came out at 39.8 ± 2.7 µM. Further, in series [6], the viability at 1.56 µM turned out to be 100%, the viability at 3.125 µM was 100%, the viability at 6.25 µM was 100% and the viability at 12.5 µM was 91.3%. Besides, in series [6], the viability at 25 µM was found to be 70.5%, the viability at 50 µM is 54%, the viability at 100 µM was 39.4% and the IC50 is 62 ± 3.2 µM.
For the compound `O=c1cc(N2CCOCC2)oc2c(-c3ccccc3)cccc12` [LY294002, reference compound], the PI3K-α %inh is recorded as 8.66% in series [7] (conc 0.1 (unit not given)), 21.2% in series [7] (conc 1 (unit not given)), 54.8% in series [7] (conc 10 (unit not given)) and 76.7% in series [7] (conc 100 (unit not given)).
